Assay results from patent publication US20230286973A1, “PROTEIN SECRETION INHIBITORS” (KEZAR LIFE SCIENCES, priority 2020, published 2023).
pEC50, pIC50: −log10 of the molar value. Read-outs that look alike come from different tables or passages of the source.

Experiments:
[1] = Liver Microsome Stability Assay (human); conditions: human liver microsomes, with NADPH, 1.0 uM compound
Method: (§1) Stability of a compound was assessed in the presence of liver microsomes from various sources—mouse, rat, monkey and human liver microsomes. 1.0 uM compound, 0.4% DMSO in 0.1 M Potassium Phosphate with 1.0 mg/mL liver microsomes, were incubated at 37° C. with or without 1 mM NADPH. The samples were quenched at 0, and 30 minutes.

[2] = system: multiple myeloma cell line U266B1; experiment: U266 Cell Viability Assay; type: cell-based, human; conditions: Homo sapiens, U-266, 48 h, U266B1 cells, Celltiter-Glo
Summary of the method: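 Viability is measured as luciferase signal from CellTiter-Glo following a 48-hour incubation with compound at 37° C. under 5% CO2. Where structures lack drawn stereochemistry, values refer to stereoisomer mixtures.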

[3] = Liver Microsome Stability Assay (monkey); conditions: monkey liver microsomes, with NADPH, 1.0 uM compound
Method: as §1

[4] = Liver Microsome Stability Assay (rat); conditions: rat liver microsomes, with NADPH, 1.0 uM compound
Method: as §1

[5] = system: PD1-ss+10aa/Gaussia Luciferase; experiment: Dox-Induced PD1-ss-Gluc Assay; type: cell-based; conditions: 24 hr Dox induction, 293FRT/TO cells, read-out: 24 hr Dox Inducible PD1ssGluc 293FRT/TO: Mean IC50
Summary of the method: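 Gaussia luciferase fused downstream of the PD1 signal peptide plus 10 residues was expressed on doxycycline induction in stably transfected Flp-In 293 T-REx cells. Compounds were added with doxycycline and incubated at 37 °C, 5% CO2.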

[6] = Liver Microsome Stability Assay (mouse); conditions: mouse liver microsomes, with NADPH, 1.0 uM compound
Method: as §1

[7] = system: multiple myeloma cell line NCI-H929; experiment: H929 Cell Viability Assay; type: cell-based, human; conditions: Homo sapiens, NCI-H929, 48 h, NCI-H929 cells, Celltiter-Glo
Summary of the method: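 Viability is scored by CellTiter-Glo luminescence following a 48-hour treatment at 37° C. Data for structures shown without stereochemistry refer to stereoisomer mixtures.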

[8] = system: IL-2-FL/Gaussia Luciferase; experiment: Dox Induced IL2-FL-Gluc Assay; type: cell-based; conditions: for pIC50: 24 hr Dox induction, 293FRT/TO cells, read-out: 24 hr Dox Inducible IL2FLGluc 293FRT/TO: Mean IC50; for 24 hr Dox Inducible IL2FLGluc 293FRT/TO: IL2/PD1: ratio of IL2FLGluc IC50 to PD1ssGluc IC50
Summary of the method: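 Doxycycline induces an IL-2(1-153)–Gaussia luciferase fusion in a stable Flp-In 293 T-REx line. Compound exposure runs alongside induction at 37° C.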

[9] = system: TNFα-FL/Gaussia Luciferase; experiment: Dox Induced TNFα-FL-Gluc Assay; type: cell-based; conditions: for pIC50: 24 hr Dox induction, 293FRT/TO cells, read-out: 24 hr Dox Inducible TNFaFLGluc 293FRT/TO: Mean IC50; for 24 hr Dox Inducible TNFaFLGluc 293FRT/TO: TNF/PD1: ratio of TNFaFLGluc IC50 to PD1ssGluc IC50
Summary of the method: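 Doxycycline-inducible Gaussia luciferase-tagged full-length TNFα (1-233) was expressed in stable Flp-In 293 T-REx cells. Compounds were co-added with doxycycline and incubated at 37 °C, 5% CO2.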

[10] = system: HER3-ss+4aa/Gaussia Luciferase; experiment: Dox-Induced Her3-ss-Gluc Assay; type: cell-based; conditions: 24 hr Dox induction, 293FRT/TO cells, read-out: 24 hr Dox Inducible Her3(ss + 4)Gluc 293FRT/TO: Mean IC50
Summary of the method: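 Reporter line: Flp-In 293 T-REx, T-REx-regulated HER3-ss+4aa fused to Gaussia luciferase. Compound co-added with doxycycline after overnight plating, 37° C., 5% CO2.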

[11] = '<=>' given where both are I.A.

| Structure (SMILES) | Liver Microsome Stability (Multiple Species): Human - % Remaining after 30 min w/NADPH [1] [%] | pEC50 [2] | Liver Microsome Stability (Multiple Species): Monkey - % Remaining after 30 min w/NADPH [3] [%] | Liver Microsome Stability (Multiple Species): Rat - % Remaining after 30 min w/NADPH [4] [%] | pIC50 ([5]; mean) | Liver Microsome Stability (Multiple Species): Mouse - % Remaining after 30 min w/NADPH [6] [%] | pEC50 [7] | pIC50 ([8]; mean) | 24 hr Dox Inducible IL2FLGluc 293FRT/TO: IL2/PD1 [8, 11] | pIC50 ([9]; mean) | 24 hr Dox Inducible TNFaFLGluc 293FRT/TO: TNF/PD1 [9, 11] | pIC50 ([10]; mean) | pIC50 [5] | pIC50 [8] | 24 hr Dox Inducible IL2FLGluc 293FRT/TO: IL2/PD1 [8] | pIC50 [9] | 24 hr Dox Inducible TNFaFLGluc 293FRT/TO: TNF/PD1 [9] | pIC50 [10] |
| --- | --- | --- | --- | --- | --- | --- | --- | --- | --- | --- | --- | --- | --- | --- | --- | --- | --- | --- |
| CN(C)CCO[C@@H]1C[C@H](c2csc(NC(=O)c3cccn3Cc3ccncc3)n2)N(c2ccccc2)C1 [Compound E31] | 2.06 | 5.10 | 0.25 | 21.2 | 5.78 | 38.3 | 5.05 | 5.04 | 5.4 | < 4.60 | >15.0 | 5.04 |  |  |  |  |  |  |
| CC(C)c1nc(/C=C/c2csc(NC(=O)c3cccn3Cc3ccncc3)n2)cn1C [Compound B72, (E)-N-(4-(2-(2-isopropyl-1-methyl-1H-imidazol-4-yl)vinyl)thiazol-2-yl)-1-(pyridin-4-ylmethyl)-1H-pyrrole-2-carboxamide] | 0.95 | < 4.60 | 0.06 | 0.16 |  | 0.03 | < 4.60 |  |  |  |  |  | 5.15 | < 4.60 | >3.5 | < 4.60 | >3.50 | 4.97 |
| O=C(Nc1nc([C@H]2CCCN2c2ccccc2)cs1)c1cccn1CC1CC(F)(F)C1 [Compound C94, (R)-1-((3,3-difluorocyclobutyl)methyl)-N-(4-(1-phenylpyrrolidin-2-yl)thiazol-2-yl)-1H-pyrrole-2-carboxamide] | 63.4 | < 4.60 | 10.6 | 20.7 | 5.45 | 52.1 | < 4.60 | 5.44 | 1 | < 4.60 | >6.97 | 5.62 |  |  |  |  |  |  |
| NC(=O)c1ccc(N2CCC[C@@H]2c2csc(NC(=O)c3cccn3Cc3ccncc3)n2)cc1 [Compound A19] | 0.48 | < 4.60 | 0.17 | 0.39 |  | 3.24 | 6.66 |  |  |  |  |  | 8.61 | 8.04 | 3.7 | 7.34 | 18.4 | 8.25 |
| Cc1cc(C(=O)Nc2nc([C@H]3CCCN3c3ccccc3)cs2)n(Cc2ccncc2)c1 [Compound A115, (R)-4-methyl-N-(4-(1-phenylpyrrolidin-2-yl)thiazol-2-yl)-1-(pyridin-4-ylmethyl)-1H-pyrrole-2-carboxamide] | 14.6 | 5.14 | 3.2 | 9.02 |  | 3.39 | 5.70 |  |  |  |  |  | 7.38 | 6.91 | 2.9 | 6.23 | 14.1 | 7.05 |
| CC(C)c1ccc(/C=C/c2csc(NC(=O)c3cccn3Cc3ccnc(F)c3)n2)nc1 [Compound B64, (E)-1-((2-fluoropyridin-4-yl)methyl)-N-(4-(2-(5-isopropylpyridin-2-yl)vinyl)thiazol-2-yl)-1H-pyrrole-2-carboxamide] | 0.37 | < 4.65 | 0.12 | 0.46 |  | 0.29 | 4.80 |  |  |  |  |  | 7.69 | 5.76 | 84 | 4.74 | 894 | 6.11 |
| CC(C)(C)c1nc(/C=C/c2csc(NC(=O)c3cccn3Cc3ccncc3)n2)co1 [Compound B36, (E)-N-(4-(2-(2-(tert-butyl)oxazol-4-yl)vinyl)thiazol-2-yl)-1-(pyridin-4-ylmethyl)-1H-pyrrole-2-carboxamide] | 0.7 | 5.13 | 3.93 | 2.95 |  | 9.8 | 5.15 |  |  |  |  |  | 6.76 | 5.60 | 14 | 5.43 | 21.7 | 6.11 |
| O=C(Nc1nc(Cc2ccccn2)cs1)c1cccn1Cc1ccncc1 [Compound E11, N-(4-(pyridin-2-ylmethyl)thiazol-2-yl)-1-(pyridin-4-ylmethyl)-1H-pyrrole-2-carboxamide] | 0.97 | < 4.60 | 1.33 | 2.06 | 5.66 | 0.36 | < 4.60 | 5.08 | 3.8 | < 4.60 | >11.4 | 5.09 |  |  |  |  |  |  |
| O=C(Nc1nc([C@H]2CCCN2)cs1)c1cccn1Cc1ccncc1 [Compound E17, (R)-1-(pyridin-4-ylmethyl)-N-(4-(pyrrolidin-2-yl)thiazol-2-yl)-1H-pyrrole-2-carboxamide] | 35.6 | < 4.60 | 18.1 | 27.8 | < 4.60 | 35.8 | < 4.60 | < 4.60 | 1 | < 4.60 |  | < 4.60 |  |  |  |  |  |  |
